In patent US9802941B2, “Compounds and methods for inhibiting histone demethylases” (Gilead Sciences, Inc., priority 2014, dated 2017) one finds IC50 data, which are given here for 9 compounds.

Holding throughout (assay type): biochemical
For test [1], the target named is T1, KDM5B (PLU-1) (Homo sapiens, UniProt Q9UGL1).
T1 construct: BRIC; 1-809; E. coli; host or cells: E. coli
T1 sequence (Q9UGL1 1-809): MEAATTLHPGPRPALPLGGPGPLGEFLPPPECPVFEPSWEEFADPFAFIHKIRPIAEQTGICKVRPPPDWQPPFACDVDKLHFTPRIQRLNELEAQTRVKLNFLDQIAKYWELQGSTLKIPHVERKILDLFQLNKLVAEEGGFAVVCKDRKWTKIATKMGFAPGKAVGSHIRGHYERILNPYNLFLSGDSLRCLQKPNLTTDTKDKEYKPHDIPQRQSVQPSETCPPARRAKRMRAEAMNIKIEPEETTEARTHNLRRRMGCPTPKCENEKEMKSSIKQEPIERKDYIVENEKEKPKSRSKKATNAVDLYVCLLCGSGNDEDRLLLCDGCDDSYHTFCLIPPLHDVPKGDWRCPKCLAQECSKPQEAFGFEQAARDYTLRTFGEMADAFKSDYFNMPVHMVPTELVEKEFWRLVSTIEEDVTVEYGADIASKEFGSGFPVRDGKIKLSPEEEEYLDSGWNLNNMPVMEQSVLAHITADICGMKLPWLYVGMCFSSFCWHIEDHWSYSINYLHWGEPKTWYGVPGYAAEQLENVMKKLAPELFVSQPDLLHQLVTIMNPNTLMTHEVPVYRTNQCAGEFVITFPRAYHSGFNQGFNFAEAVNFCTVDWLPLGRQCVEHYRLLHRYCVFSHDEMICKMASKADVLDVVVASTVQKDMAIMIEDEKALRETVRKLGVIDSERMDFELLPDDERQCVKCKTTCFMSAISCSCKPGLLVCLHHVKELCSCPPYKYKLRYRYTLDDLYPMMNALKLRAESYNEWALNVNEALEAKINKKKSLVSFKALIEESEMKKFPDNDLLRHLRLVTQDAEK
Nature of the test: Histone lysine demethylase AlphaLISA assay, KDM5B. The essentials: (§1)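 Compounds preincubated 10 min with each demethylase in Hepes buffer (pH 7.4-8.0) containing Tween-20, 0.1% BSA and 5 μM Fe(II); substrate then added, room-temperature reaction. Read-out by AlphaLISA acceptor and streptavidin donor beads after incubation in the dark.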

Test [2] addresses T2, KDM4C (JMJD2C) (Homo sapiens, UniProt Q9H3R0).
T2 construct: KDM4C; BRIC, Denmark; 1-349; E. coli; host or cells: E. coli
T2 sequence (Q9H3R0 1-349): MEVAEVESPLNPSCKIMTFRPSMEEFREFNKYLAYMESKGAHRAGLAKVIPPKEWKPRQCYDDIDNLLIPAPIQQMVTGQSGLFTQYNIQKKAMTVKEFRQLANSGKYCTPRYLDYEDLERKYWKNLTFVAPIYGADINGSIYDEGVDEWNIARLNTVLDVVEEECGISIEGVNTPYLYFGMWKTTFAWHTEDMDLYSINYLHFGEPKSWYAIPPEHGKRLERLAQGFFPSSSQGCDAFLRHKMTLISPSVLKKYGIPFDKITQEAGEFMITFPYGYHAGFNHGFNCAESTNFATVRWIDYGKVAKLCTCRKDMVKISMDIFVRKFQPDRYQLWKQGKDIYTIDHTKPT
Nature of the test: Histone lysine demethylase AlphaLISA assay, KDM4C. The essentials: as §1
Background: In Alpha technology, singlet oxygen from a donor bead excites a nearby acceptor bead.

The target in test [3] is T3, KDM6A (UTX) (Homo sapiens, UniProt O15550).
T3 construct: KDM6A (UTX); BRIC; 919-1401; E. coli; host or cells: E. coli
The test can be described thus: Histone lysine demethylase AlphaLISA assay, KDM6A. The procedure:
The compounds of the application, or a pharmaceutically acceptable salt, or solvate, or prodrug thereof, are tested in an in vitro AlphaLISA assay. Enzymes are dissolved in enzyme buffer and incubated before they are added to DMSO solutions of compounds of the application, or a pharmaceutically acceptable salt, or solvate, or prodrug thereof, in enzyme buffer. The reaction mixture is then incubated for an additional period of time before substrate solution is added and then the resulting mixture again incubated. Acceptor beads and suspended Epigenetic Buffer from stock are added and the suspension is again incubated before a suspension of streptavidin donor beads in Epigenetic Buffer is added. After an additional period of incubation, the plates are read.
The ability of compounds of the application to inhibit the histone lysine demethylase activity in vitro of different enzymes was determined.
The reaction mixture was incubated for another 10 minutes before 5 μL of substrate solution was added and the resulting mixture was then incubated at room temperature. […] After incubation at room temperature in the dark, the plates were read.
Enzyme Buffer: 50 mM Hepes (pH 7.4-8.0), 0.003-0.01% Tween-20, 0.1% BSA; 5 μM (NH4)2Fe(SO4)2.

In test [4] the target is T4, PHF8 (KDM7) (Homo sapiens, UniProt Q9UPP1).
T4 construct: KDM7 (PHF8); BRIC; 1-1322; Bac
Nature of the test: Histone lysine demethylase AlphaLISA assay, PHF8. The essentials: as §1

The target of test [5] is T5, KDM2B (FBXL10) (Homo sapiens, UniProt Q8NHM5).
T5 construct: KDM2B; BPS,; 1-650; Bac; purchased BPS Bioscience, US; host or cells: baculovirus system
T5 sequence (Q8NHM5 1-650): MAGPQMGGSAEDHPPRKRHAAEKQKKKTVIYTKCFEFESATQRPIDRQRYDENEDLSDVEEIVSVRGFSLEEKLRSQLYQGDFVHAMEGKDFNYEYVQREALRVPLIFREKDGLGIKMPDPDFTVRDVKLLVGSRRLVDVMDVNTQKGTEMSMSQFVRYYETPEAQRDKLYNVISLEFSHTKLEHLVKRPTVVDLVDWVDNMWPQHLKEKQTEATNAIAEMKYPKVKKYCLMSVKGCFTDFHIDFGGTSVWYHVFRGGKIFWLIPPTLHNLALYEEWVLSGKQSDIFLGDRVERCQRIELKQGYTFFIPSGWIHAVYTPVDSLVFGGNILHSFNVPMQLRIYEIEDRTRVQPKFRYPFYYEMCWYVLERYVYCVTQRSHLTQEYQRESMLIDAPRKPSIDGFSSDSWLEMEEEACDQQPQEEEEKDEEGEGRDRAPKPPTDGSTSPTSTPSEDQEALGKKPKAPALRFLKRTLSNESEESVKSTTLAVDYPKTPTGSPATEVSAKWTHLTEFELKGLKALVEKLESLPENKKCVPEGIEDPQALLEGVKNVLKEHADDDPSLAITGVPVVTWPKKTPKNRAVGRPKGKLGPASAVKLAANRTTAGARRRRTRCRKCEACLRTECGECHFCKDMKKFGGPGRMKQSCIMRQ
Nature of the test: Histone lysine demethylase AlphaLISA assay, KDM2B. Summed up:
as §1

[6] abbreviates: AlphaLISA, in vitro, read-out: HDME Inhibition KDM4C.
Where [7] appears, read: AlphaLISA assay, read-out: HDME Inhibition KDM6A (IC50).
Setting [8] is: AlphaLISA, in vitro, read-out: HDME Inhibition KDM6A.
[9] abbreviates: AlphaLISA assay, read-out: HDME Inhibition PHF8 (IC50).
Where [10] appears, read: AlphaLISA, in vitro, read-out: HDME Inhibition PHF8.
[11] abbreviates: AlphaLISA, in vitro, read-out: HDME Inhibition KDM2B.
[12] abbreviates: AlphaLISA, in vitro, read-out: HDME Inhibition KDM5B.
Where [13] appears, read: AlphaLISA assay, read-out: HDME Inhibition KDM4C (IC50).
Setting [14] is: AlphaLISA assay, read-out: HDME Inhibition KDM5B (IC50).

Structures are written as SMILES. Read-outs that look alike come from different tables or passages of the source. Where only a bound is given, the exact number is not on record here.

T3 sequence (O15550 919-1401): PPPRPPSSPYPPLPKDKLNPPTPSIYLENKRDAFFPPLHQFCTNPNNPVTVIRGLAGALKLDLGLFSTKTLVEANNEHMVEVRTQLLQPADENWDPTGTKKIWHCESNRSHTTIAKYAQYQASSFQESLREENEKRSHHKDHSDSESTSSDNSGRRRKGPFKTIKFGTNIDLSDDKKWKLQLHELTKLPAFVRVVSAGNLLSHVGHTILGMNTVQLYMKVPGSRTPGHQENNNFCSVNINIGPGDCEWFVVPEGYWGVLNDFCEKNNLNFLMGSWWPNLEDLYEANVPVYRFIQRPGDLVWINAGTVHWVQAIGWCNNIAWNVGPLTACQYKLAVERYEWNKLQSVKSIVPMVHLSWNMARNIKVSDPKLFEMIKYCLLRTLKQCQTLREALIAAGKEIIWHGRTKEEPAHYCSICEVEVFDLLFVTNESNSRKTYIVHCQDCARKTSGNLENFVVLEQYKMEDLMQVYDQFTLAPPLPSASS
T4 sequence (Q9UPP1 37-440 limits assumed): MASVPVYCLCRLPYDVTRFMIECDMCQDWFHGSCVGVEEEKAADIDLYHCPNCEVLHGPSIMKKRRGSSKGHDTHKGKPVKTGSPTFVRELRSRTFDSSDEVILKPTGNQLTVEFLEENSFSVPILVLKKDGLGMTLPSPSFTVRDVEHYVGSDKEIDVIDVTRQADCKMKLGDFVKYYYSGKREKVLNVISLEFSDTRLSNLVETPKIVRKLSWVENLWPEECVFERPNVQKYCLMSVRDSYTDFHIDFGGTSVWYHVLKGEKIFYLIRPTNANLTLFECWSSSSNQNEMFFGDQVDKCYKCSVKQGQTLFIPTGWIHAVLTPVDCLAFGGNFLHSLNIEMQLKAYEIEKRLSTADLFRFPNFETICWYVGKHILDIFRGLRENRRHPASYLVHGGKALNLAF

Turning to `CCC(C)c1cnc(CNCc2cc(C(=O)O)cc(C)n2)n1Cc1ccc(F)cc1` (centres unmarked) [Compound 9, 2-[({[5-(butan-2-yl)-1-[(4-fluorophenyl)methyl]-1H-imidazole-2-yl]methyl}amino)methyl]-6-methyl-pyridine-4-carboxylic acid], the IC50 in test [1] is 0.714 µM; in test [2] (setting [6]), 0.299 µM; in test [3] (setting [7]), > 10 µM; in test [3] (setting [8]), > 10 µM; in test [4] (setting [9]) it was > 10 µM; in test [4] (setting [10]), > 10 µM. For the same compound, the IC50 in test [5] (AlphaLISA assay, read-out: HDME Inhibition KDM2B (IC50)) is > 10 µM; in test [5] (setting [11]) it was > 10 µM.
Turning to `Cc1cc(C(=O)O)cc(CNC2CCCc3cccnc32)n1` (centres unmarked) [Compound 19, 2-methyl-6-{[(5,6,7,8-tetrahydroquinolin-8-yl)amino]methyl}pyridine-4-carboxylic acid], the IC50 in test [1] (setting [12]) is 0.348 µM; in test [2] (setting [13]) it was > 10 µM; in test [2] (setting [6]), > 10 µM; in test [3] (setting [7]) it was > 10 µM; in test [3] (setting [8]), > 10 µM; in test [4] (setting [10]), 0.89 µM. The IC50 in test [5] (setting [11]) was found to be 1.15 µM.
Consider `CCCCCCCc1cccnc1CCNCc1cc(C(=O)O)cc(C)n1` [Compound 21, 2-({[2-(3-heptylpyridin-2-yl)ethyl]amino}methyl)-6-methylpyridine-4-carboxylic acid], for which the IC50 in test [1] (setting [14]), in test [1] (setting [12]), in test [2] (setting [13]), in test [2] (setting [6]), in test [3] (setting [7]) and in test [3] (setting [8]) was > 10 µM each time. Also, the IC50 in test [4] (setting [9]) is > 10 µM; in test [4] (setting [10]) it was > 10 µM; in test [5] (setting [11]), 5.35 µM.
As for `Cc1cc(C(=O)O)cc(CNCc2nccn2CCc2cncnc2)n1` [Compound 26, 2-methyl-6-{[({1-[2-(pyrimidin-5-yl)ethyl]-1H-imidazol-2-yl}methyl)amino]methyl}pyridine-4-carboxylic acid], the IC50 in test [1] was 3.02 µM; in test [2] (setting [13]) it was > 10 µM; in test [2] (setting [6]) it was > 10 µM; in test [3] (setting [7]), > 10 µM; in test [3] (setting [8]) it was > 10 µM; in test [4] (setting [10]), 1.03 µM. In test [5] (setting [11]), the IC50 is 0.565 µM.
Regarding `Cc1cc(C(=O)O)cc(CNCc2nccn2Cc2ccc(F)cc2)n1` [Compound 1, 2-{[({1-[(4-fluorophenyl)methyl]-1H-imidazol-2-yl}methyl)amino]methyl}-6-methylpyridine-4-carboxylic acid], the IC50 in test [1] (setting [14]), in test [1] (setting [12]), in test [2] (setting [13]), in test [2] (setting [6]), in test [3] (setting [7]) and in test [3] (setting [8]) was > 10 µM each time. In addition, the results for the IC50 in test [4] (setting [10]) and in test [5] (setting [11]) were 0.352 µM and 0.431 µM, respectively.
Turning to `CSc1nnc(CNCc2cc(C(=O)O)cc(C)n2)n1Cc1ccc(F)cc1` [Compound 36, 2-{[({4-[(4-fluorophenyl)methyl]-5-(methylsulfanyl)-4H-1,2,4-triazol-3-yl}methyl)amino]methyl}-6-methylpyridine-4-carboxylic acid], the IC50 in test [1] (setting [14]), in test [1] (setting [12]), in test [2] (setting [13]), in test [2] (setting [6]), in test [3] (setting [7]) and in test [3] (setting [8]) was > 10 µM in each case. Also, the values for the IC50 in test [4] (setting [10]) and in test [5] (setting [11]) were 0.908 µM and 0.248 µM, respectively.
For the compound `Cc1cc(C(=O)O)cc(CNCc2ncc(C(C)C)n2Cc2ccc(F)cc2)n1` [Compound 8, 2-{[({1-[(4-fluorophenyl)methyl]-5-(propan-2-yl)-1H-imidazol-2-yl}methyl)amino]methyl}-6-methylpyridine-4-carboxylic acid], the IC50 in test [1] (setting [14]), in test [1] (setting [12]), in test [2] (setting [13]), in test [2] (setting [6]), in test [3] (setting [7]) and in test [3] (setting [8]) was > 10 µM throughout. Moreover, the IC50 in test [4] (setting [10]) amounted to 0.384 µM; in test [5] (setting [11]) it was 0.15 µM.
On to `Cc1cc(C(=O)O)cc(CNCc2nnc(C)n2Cc2ccc(F)cc2)n1` [Compound 37, 2-{[({4-[(4-Fluorophenyl)methyl]-5-methyl-4H-1,2,4-triazol-3-yl}methyl)amino]methyl}-6-methylpyridine-4-carboxylic acid], for which the IC50 in test [1] (setting [14]), in test [1] (setting [12]), in test [2] (setting [13]), in test [2] (setting [6]), in test [3] (setting [7]) and in test [3] (setting [8]) was > 10 µM in each case. Also, the IC50 in test [4] (setting [10]) was 0.489 µM; in test [5] (setting [11]) it was 0.297 µM.
As to `CC(=O)c1ccc(Cn2ccnc2CNCc2cc(C(=O)O)cc(C)n2)cc1` [Compound 24, 2-{[({1-[(4-acetylphenyl)methyl]-1H-imidazol-2-yl}methyl)amino]methyl}-6-methylpyridine-4-carboxylic acid], the IC50 in test [1] was 0.262 µM; in test [2] (setting [13]), > 10 µM; in test [2] (setting [6]), > 10 µM; in test [3] (setting [8]), 8.35 µM; in test [5] (setting [11]), 2.23 µM.
